Laboratory results taken from ChEMBL document CHEMBL4400571, “Essential structure of orexin 1 receptor antagonist YNT-707, part III: Role of the 14-hydroxy and the 3-methoxy groups in antagonistic activity toward the orexin 1 receptor in YNT-707 derivatives lacking the 4,5-epoxy ring” (Bioorg Med Chem, 2019).

Tests used:
[1] = target: T1, Orexin receptor type 2 (Homo sapiens, UniProt O43614); experiment: Antagonist activity at human OX2 receptor expressed in CHOK1 cells assessed as inhibition of orexin-A-induced calcium mobilization preincubated for 15 mins followed by orexin-A addition and measured by FURA 2-AM dye based fluorescence assay; type: functional, cell-based
T1 sequence (O43614 whole entry): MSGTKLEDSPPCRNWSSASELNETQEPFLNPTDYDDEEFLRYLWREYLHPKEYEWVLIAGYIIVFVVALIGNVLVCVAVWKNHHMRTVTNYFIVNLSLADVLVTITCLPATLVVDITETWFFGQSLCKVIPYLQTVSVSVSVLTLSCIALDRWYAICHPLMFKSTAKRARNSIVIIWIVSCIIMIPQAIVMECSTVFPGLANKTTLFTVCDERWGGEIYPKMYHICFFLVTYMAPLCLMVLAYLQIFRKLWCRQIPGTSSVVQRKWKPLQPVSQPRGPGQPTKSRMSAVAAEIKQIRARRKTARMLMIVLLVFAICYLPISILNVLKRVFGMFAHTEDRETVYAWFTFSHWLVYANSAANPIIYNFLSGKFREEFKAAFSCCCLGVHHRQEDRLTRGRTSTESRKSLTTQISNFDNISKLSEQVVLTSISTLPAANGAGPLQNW

[2] = target: T2, Orexin/Hypocretin receptor type 1 (Homo sapiens, UniProt O43613); experiment: Antagonist activity at human OX1 receptor expressed in CHOK1 cells assessed as inhibition of orexin-A-induced calcium mobilization preincubated for 15 mins followed by orexin-A addition and measured by FURA 2-AM dye based fluorescence assay; type: functional, cell-based
T2 sequence (O43613 whole entry): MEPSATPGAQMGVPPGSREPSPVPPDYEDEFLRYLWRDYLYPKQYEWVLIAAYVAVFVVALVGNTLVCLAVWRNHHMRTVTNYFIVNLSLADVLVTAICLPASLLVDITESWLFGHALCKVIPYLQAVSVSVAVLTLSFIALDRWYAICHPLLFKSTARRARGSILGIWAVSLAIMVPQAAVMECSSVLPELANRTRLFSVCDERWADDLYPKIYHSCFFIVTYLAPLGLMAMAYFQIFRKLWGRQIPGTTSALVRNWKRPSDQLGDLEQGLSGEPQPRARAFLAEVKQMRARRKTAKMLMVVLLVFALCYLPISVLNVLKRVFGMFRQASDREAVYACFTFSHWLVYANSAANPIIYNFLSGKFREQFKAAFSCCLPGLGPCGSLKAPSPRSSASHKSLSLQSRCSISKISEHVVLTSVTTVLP

Structure (SMILES) | Ki [1] [nM] | Ki [2] [nM]
COc1ccc2c3c1O[C@H]1[C@H](N(C)C(=O)/C=C/c4ccoc4)CC[C@@]4(O)[C@@H](C2)N(S(=O)(=O)c2ccccc2)CC[C@]314 | > 10000 | 
COc1ccc2c(c1)[C@]13CCN(S(=O)(=O)c4ccccc4)[C@H](C2)[C@]1(O)CC[C@@H](N(C)C(=O)/C=C/c1ccoc1)C3 | > 10000 | 
CN(C(=O)/C=C/c1ccoc1)[C@@H]1CC[C@@]2(O)[C@H]3CC4=C(CCCC4)[C@@]2(CCN3S(=O)(=O)c2ccccc2)C1 | > 10000 | > 10000
COc1ccc2c(c1)[C@]13CCN(S(=O)(=O)c4ccccc4)[C@H](C2)C1=CC[C@H](N(C)C(=O)/C=C/c1ccoc1)C3 | > 10000 | 502
CN(C(=O)/C=C/c1ccoc1)[C@H]1CC[C@@]2(O)[C@H]3Cc4ccccc4[C@@]2(CCN3S(=O)(=O)c2ccccc2)C1 | 173 | 9.35
COc1ccc2c(c1)[C@]13CCN(S(=O)(=O)c4ccccc4)[C@H](C2)C1=CC[C@@H](N(C)C(=O)/C=C/c1ccoc1)C3 | > 10000 | 5.89
COc1ccc2c(c1)[C@]13CCN(S(=O)(=O)c4ccccc4)[C@H](C2)[C@@H]1CC[C@@H](N(C)C(=O)/C=C/c1ccoc1)C3 | > 10000 | 5.51
CN(C(=O)/C=C/c1ccoc1)[C@H]1CC[C@@]2(O)[C@H]3CC4=C(CCCC4)[C@@]2(CCN3S(=O)(=O)c2ccccc2)C1 | 91.9 | 7.45
CN(C(=O)/C=C/c1ccoc1)[C@@H]1CC[C@@]2(O)[C@H]3Cc4ccccc4[C@@]2(CCN3S(=O)(=O)c2ccccc2)C1 | > 10000 | 461
COc1ccc2c(c1)[C@]13CCN(S(=O)(=O)c4ccccc4)[C@H](C2)[C@@H]1CC[C@H](N(C)C(=O)/C=C/c1ccoc1)C3 | 79.9 | 4.34
